Experimental data from PMC5052702 (Nature Communications, 2016).
Where “and” joins values, the source holds several entries; their conditions need not be identical. Identical values can stand only once. Like-named read-outs stand apart in the source and are kept apart here.

What was measured:
[1] = molecular target: T1, CVB3 3C protease (Coxsackievirus B3, UniProt P03313); experiment: FRET-based enzyme activity assay (warhead activation / inhibitor kinetics); assay type: biochemical, Coxsackie virus B3; conditions: for kinact/KI: relative inactivation rate, slope of kobs against inhibitor concentration
T1 construct: 3C protease of Coxsackie virus B3 consisting of 183 amino-acid residues; made in house; host or cells: E. coli BL21(DE3), plasmid pET-23a(+)
Protocol: The activity of the protease was measured by hydrolysis of the FRET-substrate N-Dabcyl-KTLEALFQ↓GPPVYE(Edans)-NH2. The peptide was purchased from Biosyntan (Berlin, Germany). Samples were irradiated with light with a wavelength of 355 nm and the emitted light at 538 nm was measured in relative fluorescence units (RFUs). An amount of 100 pmol of cleaved substrate equals 5,000 RFU.
Assay samples contained 10 μl of a 100 mM HEPES-NaOH buffer solution pH 7.5/1 mM EDTA, 10 μl enzyme solution (2 μM CVB3 3C^Pro), 10 μl of 10 μM substrate solution (both dissolved in the above buffer) and 1 μl Inhibitor and/or fragment dissolved in DMSO. For assay results of a dilution series of a mixture of 1 and 2 and comparison of reaction products in dependence of the assay solvent, see Supplementary Figs 1 and 2.
The screening procedure consisted of the following steps: 10 μl 100 mM HEPES-NaOH buffer solution pH 7.5/1 mM EDTA was placed in a cavity of the 384-well plate (polystyrene, Corning 3544). Then 10 μl of enzyme solution (40 μM CVB3 3C protease in 100 mM HEPES-NaOH buffer solution, pH 7.5/1 mM EDTA) was added and the plate was shaken for 2 min at 1,400 r.p.m. Afterwards, 0.5 μl of a DMSO solution of the electrophilic probe and 0.5 μl of a DMSO solution of the nucleophile was added, followed by 10 μl of substrate solution (10 μM in 100 mM HEPES-NaOH buffer solution, pH 7.5/1 mM EDTA). The plate was shaken again for 2 min at 1,400 r.p.m. and the generated fluorescence signal was measured with a Safire II Fluorimeter from Tecan. The electrophilic probe 1 was used at a concentration of 400 μM for the screening, which lowered the protease activity by 10–20%. Eight-hundred fifty primary amines were tested at a concentration of 320 μM and fragment 2 amplified the inhibitory activity of 1 most potently. Positive control samples contained only DMSO instead of the probe or the nucleophile. Negative control samples contained no active enzyme. An interfering fluorescent effect has not been observed.
When determining the inhibitory parameters of an inhibitor, the assay set-up was as mentioned but 1 μl DMSO solution of inhibitor was used instead of probe or nucleophile. Different concentrations of inhibitor were tested at least as duplicates and the pseudo-first-order association kinetics (kobs) were determined using GraphPad Prism. The slope of a plot of the different kobs values against the inhibitor concentration yielded kinact/KI.

[2] = molecular target: HRV-A49 3C protease (Rhinovirus A49, UniProt A5GZE5); experiment: In vitro proteolytic activity assay (HPLC, 3 h incubation); assay type: biochemical, human rhinovirus A49; conditions: for reduction of protease activity: protein inhibitor stoichiometries of 1:1 and 1:3; for IC50: fixed enzyme concentration, 3 h incubation
Protocol: (§1) For 12 and 14, the inhibitory activity decreased for EV-B93>PSV-1>ERBV-1>AiV-1>EV-D68>HRV-A49.
(§2) A volume of 100 μl of reaction mixture containing 1.9 μM 3C protease, 25 μM substrate peptide, 5% DMSO, buffer (30 mM Tris pH 8.0, and 50 mM NaCl or 50 mM HEPES pH 7.4 and 50 mM NaCl) and (optionally) different concentrations of inhibitor was incubated in 37 °C during 3 h. The reaction was quenched by addition of 0.5% (final concentration) TFA. Samples were analysed by HPLC on SOURCE 15RPC ST 4.6/100 column using: 2–90% linear gradient of ACN in 0.1% TFA. The 3C protease activity in the absence of inhibitor was defined as 100%. The following peptides (GL Biochem, Shanghai, China) were dissolved in DMSO at a concentration of 5 mM and used for testing 3C proteases activity (Table 3).

[3] = molecular target: EV-B93 3C protease (Enterovirus B93 (species Enterovirus B), UniProt Q5DSM6); experiment: as above; assay type: biochemical, human enterovirus B93; conditions: for reduction of protease activity: protein inhibitor stoichiometries of 1:1 and 1:3; for IC50: fixed enzyme concentration, 3 h incubation; for inhibition of the enzyme: one inhibitor equivalent
Protocol: as §1, §2

[4] = molecular target: T2, AiV-1 3C protease (Aichi virus, UniProt O91464); experiment: as above; assay type: biochemical, Aichi virus 1; conditions: for reduction of protease activity: protein inhibitor stoichiometries of 1:1 and 1:3; for IC50: fixed enzyme concentration, 3 h incubation
T2 construct: a panel of six additional rhinoviral and enteroviral 3C proteases; purchased European Virus Archive
Protocol: as §1, §2

[5] = molecular target: T3, EV-D68 3C protease (Human enterovirus D68, UniProt Q68T42); experiment: as above; assay type: biochemical; conditions: for reduction of protease activity: protein inhibitor stoichiometries of 1:1 and 1:3; for IC50: fixed enzyme concentration, 3 h incubation, read-out: IC50 HEV-D68
T3 construct: a panel of six additional rhinoviral and enteroviral 3C proteases; purchased European Virus Archive
Protocol: as §1, §2

[6] = molecular target: PSV-1 3C protease (Porcine sapelovirus 1, UniProt Q8JJT0); experiment: as above; assay type: biochemical; conditions: for reduction of protease activity: protein inhibitor stoichiometries of 1:1 and 1:3; for IC50: fixed enzyme concentration, 3 h incubation
Protocol: as §1, §2

[7] = molecular target: ERBV-1 3C protease (Equine rhinitis B virus 1, UniProt Q66776); experiment: as above; assay type: biochemical; conditions: for reduction of protease activity: protein inhibitor stoichiometries of 1:1 and 1:3; for IC50: fixed enzyme concentration, 3 h incubation
Protocol: as §1, §2

[8] = tested on: Trypsin; experiment: Side reactivity testing against different proteases; assay type: biochemical; conditions: 50 mM MOPS-NaOH pH 8.0 / 154 mM NaCl, 57 µM Boc-LGR-AMC as substrate
Protocol: (§3) The four enzymes cover a broad range of S1-preferences, namely for arginine/lysine (trypsin, factor Xa), hydrophobic residues (chymotrypsin) and aspartate (caspase-3).
(§4) Supplementary Table 3. Side reactivity testing of selected compounds against different
Cpd# Structure Trypsin1) Chymotrypsin2) Human factor Xa3) Human Caspase-34)
1) in 50 mM MOPS-NaOH pH 8.0 / 154 mM NaCl with 57 µM tert. butyloxycarbonyl (Boc)-LGR-7-amino-4-
methylcoumarin (AMC) as substrate; […]

[9] = molecular target: Human factor Xa (Homo sapiens, UniProt P00742); experiment: as above; assay type: biochemical; conditions: for IC50: 50 mM MOPS-NaOH pH 8.0 / 154 mM NaCl, 114 µM Boc-LGR-AMC as substrate; for activity against factor Xa, in words: at concentrations of 100 μM
Chain of Human factor Xa (P00742 235-488 limits assumed): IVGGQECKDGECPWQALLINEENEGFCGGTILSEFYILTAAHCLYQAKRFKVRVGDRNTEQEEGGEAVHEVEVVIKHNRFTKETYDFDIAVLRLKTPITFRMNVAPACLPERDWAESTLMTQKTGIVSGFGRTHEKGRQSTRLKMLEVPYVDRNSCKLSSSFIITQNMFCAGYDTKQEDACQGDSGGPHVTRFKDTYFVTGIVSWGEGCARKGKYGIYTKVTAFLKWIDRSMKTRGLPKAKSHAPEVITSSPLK
Chain of Human factor Xa (P00742 41-179 partner limits assumed): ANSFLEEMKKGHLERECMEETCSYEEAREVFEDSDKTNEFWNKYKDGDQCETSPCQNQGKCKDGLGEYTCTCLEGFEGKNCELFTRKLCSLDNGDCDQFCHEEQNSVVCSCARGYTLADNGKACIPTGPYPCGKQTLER
Protocol: as §3, §4
(§5) Cpd# Structure Trypsin1) Chymotrypsin2) Human factor Xa3) Human Caspase-34) […]
3) in 50 mM MOPS-NaOH pH 8.0 / 154 mM NaCl with 114 µM Boc-LGR-AMC as substrate; […]

[10] = tested on: Chymotrypsin; experiment: as above; assay type: biochemical; conditions: for IC50: 50 mM MOPS-NaOH pH 8.0 / 154 mM NaCl, 1.6 mM AF-AMC as substrate; for activity against chymotrypsin, in words: at concentrations of 100 μM
Protocol: as §3, §4, §5
2) in 50 mM MOPS-NaOH pH 8.0 / 154 mM NaCl with 1.6 mM AF-AMC as substrate. […]

[11] = molecular target: T4, CBV 3C protease (Coxsackievirus B3, UniProt P03313); experiment: In vitro proteolytic activity assay (3 h incubation); assay type: biochemical, Coxsackie virus B3; conditions: fixed enzyme concentration
T4 construct: 3C protease of Coxsackie virus B3 consisting of 183 amino-acid residues; made in house; host or cells: E. coli BL21(DE3), plasmid pET-23a(+)
Protocol: as §2

[12] = molecular target: T5, Human Caspase-3 (Homo sapiens, UniProt P42574); experiment: Side reactivity testing against different proteases; assay type: biochemical; conditions: for IC50: 50 mM HEPES-NaOH pH 7.5, 10 µM acetyl-DEVD-AMC as substrate; for activity against caspase-3, in words: at concentrations of 100 μM
T5 sequence (P42574 29-175 limits assumed): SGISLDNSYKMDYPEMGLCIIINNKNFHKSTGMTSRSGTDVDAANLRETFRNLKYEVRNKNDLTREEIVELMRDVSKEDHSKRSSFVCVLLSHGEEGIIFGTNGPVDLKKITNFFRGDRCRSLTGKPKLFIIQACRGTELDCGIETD
T5 sequence (P42574 176-277 limits assumed): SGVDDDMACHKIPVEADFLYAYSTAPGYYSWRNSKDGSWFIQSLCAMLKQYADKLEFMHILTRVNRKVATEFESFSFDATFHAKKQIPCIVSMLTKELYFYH
Protocol: as §3, §4, §5
4) in 50 mM HEPES-NaOH pH 7.5 / 100 mM NaCl / 1 mM EDTA / 0.1% (w/v) CHAPS / 10% (v/v) glycerol /2 mM DTT
with 10 µM acetyl-DEVD-AMC as substrate;

SMILES: CCOC(=O)/C=C/C(=O)Oc1cc(N)n(C2CCCCCC2)n1 [Compound 11]
- IC50 ([1]; read-out: IC50): 20.2 ± 1.6 µM

SMILES: CCOC(=O)/C=C\C(=O)Nc1cc(=O)[nH]n1C1CCCCCC1 [Compound 12]
- reduction of protease activity [2]: strongly reduced the activity
- kinact/KI [1]: 606 M⁻¹ s⁻¹ and 606.4 ± 24.9 M⁻¹ s⁻¹
- reduction of protease activity [3]: strongly reduced the activity
- reduction of protease activity [4]: strongly reduced the activity
- reduction of protease activity [5]: strongly reduced the activity
- reduction of protease activity [6]: strongly reduced the activity
- reduction of protease activity [7]: strongly reduced the activity

SMILES: CCOC(=O)/C=C\C(N)=O [Compound 13]
- kinact/KI [1]: 34 M⁻¹ s⁻¹ and 34.7 ± 1.5 M⁻¹ s⁻¹

SMILES: CCNC(=O)/C=C\C(=O)Nc1cc(=O)[nH]n1C1CCCCCC1 [Compound 14]
- IC50 [8]: > 500 µM
- IC50 [2]: > 20 µM
- fold reduction of inactivation rate relative to ethyl ester 12 [1]: 10 fold
- kinact/KI [1]: 63.1 ± 3.1 M⁻¹ s⁻¹
- kinact/KI ([1]; read-out: kinact/KI): 63 M⁻¹ s⁻¹
- IC50 [9]: > 500 µM
- activity against factor Xa, in words [9]: inactive
- IC50 [3]: 4 µM
- inhibition of the enzyme [3]: fully inhibited
- IC50 [10]: > 500 µM
- activity against chymotrypsin, in words [10]: inactive
- IC50 [4]: 9 µM
- IC50 [11]: 13 µM
- IC50 [5]: > 20 µM
- IC50 [6]: 8 µM
- IC50 [7]: > 10 µM
- IC50 [12]: > 500 µM
- activity against caspase-3, in words [12]: inactive

SMILES: CCNC(=O)/C=C\C(=O)NCC [Compound 15]
- inhibition of the protease, in words [1]: fully inactive

SMILES: CCCC(CCC)n1[nH]c(=O)cc1NC(=O)/C=C\C(=O)OCC [Compound 17]
- kinact/KI ([1]; read-out: kinact/KI): 217 ± 30.7 M⁻¹ s⁻¹

SMILES: CCOC(=O)/C=C\C(=O)Nc1cc(=O)[nH][nH]1 [Compound 18]
- kinact/KI ([1]; read-out: kinact/KI): 11.7 ± 0.5 M⁻¹ s⁻¹

SMILES: O=C(/C=C/S(=O)(=O)c1ccccc1)Nc1cc(=O)[nH]n1C1CCCCCC1 [Compound 20]
- IC50 [8]: > 500 µM
- IC50 [2]: 0.3 µM
- reduction of protease activity [2]: strongly reduced the activity
- kinact/KI [1]: 1,007 M^−1 s^−1 and 1,007.7±102.2 M^−1 s^−1
- kinact/KI ([1]; read-out: kinact/KI): 1010 M⁻¹ s⁻¹
- IC50 [9]: > 500 µM
- activity against factor Xa, in words [9]: inactive
- IC50 [3]: 0.2 µM
- inhibition of the enzyme [3]: fully inhibited
- reduction of protease activity [3]: strongly reduced the activity
- IC50 [10]: > 500 µM
- activity against chymotrypsin, in words [10]: inactive
- IC50 [4]: 0.5 µM
- reduction of protease activity [4]: strongly reduced the activity
- IC50 [11]: 0.4 µM
- IC50 [5]: 1 µM
- reduction of protease activity [5]: strongly reduced the activity
- IC50 [6]: 0.3 µM
- reduction of protease activity [6]: strongly reduced the activity
- IC50 [7]: 0.5 µM
- reduction of protease activity [7]: strongly reduced the activity
- IC50 [12]: > 300 µM
- activity against caspase-3, in words [12]: inactive

SMILES: CC(C)n1[nH]c(=O)cc1NC(=O)/C=C/S(=O)(=O)c1ccccc1 [Compound 21]
- kinact/KI ([1]; read-out: kinact/KI): 542 ± 6.3 M⁻¹ s⁻¹
